Experiment [1] relates to phosphorylation of EGFR in NCI-H1975 cell line that harbors the EGFR L858R T790 M mutations. Kind of experiment: NCI-H1975 pEGFR AlphaLISA assay. Conditions: Homo sapiens, NCI-H1975, NCI-H1975 cells, p-EGFR (Tyr1068), 4-5 hours incubation; read-out: Ext pEGFR H1975 GMean IC50 (nM) Protocol: @ Pharmaron AlphaLISA (Num). The format is cell-based. On the procedure:
Inhibitory effects of the compounds of the disclosure were evaluated in cellular assays that measure level of intracellular phosphorylation of EGFR in NCI-H1975 cell line that harbors the EGFR L858R T790 M mutations (ATCC, CRL-5908) using AlphaLISA sureFire ultra p-EGFR (Tyr1068) assay kit (PerkinElmer, ALSU-PEGFR-A50K). The NCI-H1975 cells were seeded at 12.5K/well in 22 μL into 384 well opti plate (PerkinElmer, 6007299) and adhering overnight at 37° C./5% CO2. On the next day, the test compounds and DMSO control were added into H1975 cell plate followed by incubation at 37° C./5% CO2 for 4-5 hours. The cells were then spin down in the 384-well plate and lysed with 10 μL of 1× AlphaLISA lysis buffer followed by shaking at 600 rpm for 10 minutes at room temperature. After that, 5 μL of an acceptor bead mix was added to each well followed by incubation at room temperature for 1.5-2 h in dark. Then 5 μL of a donor bead mix was added to each well followed by overnight incubation at room temperature in dark. On the next day, the plate was read at a compatible plate reader to obtain pEGFR signal. Percent of pEGFR inhibition was plotted against log concentration of compounds to generate IC50 values.
In general terms: Alpha assays give light when donor and acceptor beads are brought close together.

The target in experiment [2] is T1, EGFR (L858R T790 M C797S) (Homo sapiens, UniProt P00533, C797S/L858R/T790M).
T1 construct: purchased SignalChem E10-122VG
Kind of experiment: Biochemical EGFR inhibition assay (Caliper mobility shift), LRTMCS mutant at 1 mM ATP. Conditions: read-out: LRTMCS (PH) IC50 (nM) @ 1 mM ATP (Num). On the procedure: Inhibitory effects of the compounds of the disclosure were measured in biochemical assays that measure the phosphorylation activity of EGFR enzyme phosphorylates 2.5 micromolar 5-FAM-[…]-CONH2 peptide substrate (FL-Peptide 22, PerkinElmer, 760366) in the presence of adenosine-5′-triphosphate (ATP) and varying concentrations of the test compound in 100 mM 2-[4-(2-hydroxyethyl)piperazin-1-yl]ethanesulfonic acid (HEPES), pH 7.5, 10 mM MgCl2, 0.015% Brij-35, 1 mM dithiothreitol (DTT), 1.0% dimethylsulfoxide (DMSO). Assays were performed at 1.0 mM ATP or at ATP Km of the EGFR enzymes. Reactions proceeded until between 10% to 20% total peptides were phosphorylated at room temperature (25° C.) and were terminated with 35 mM 2,2′,2″,2′″-(ethane-1,2-diyldinitrilo)tetraacetic acid (EDTA). Product was detected using the Caliper mobility shift detection method where the phosphorylated peptide (product) and substrate were electrophoretically separated and measured. Percent activity was plotted against log concentration of compound and points to generate an apparent IC50. The following enzyme forms of EGFR were examples that were used in these assays: • EGFR WT (SignalChem, E10-112G) • EGFR (L858R T790 M C797S) (SignalChem, E10-122VG) • EGFR (d746-750) T790 M C797S (SignalChem, E10-122UG) • EGFR L858R (SignalChem, E10-122BG) • EGFR (d746-750) (SignalChem, E10-122JG)

Molecules are shown by their SMILES.

The term IC50 denotes the midpoint of a concentration-inhibition curve.

T1 sequence (P00533 25-1210 T790M/C797S/L858R): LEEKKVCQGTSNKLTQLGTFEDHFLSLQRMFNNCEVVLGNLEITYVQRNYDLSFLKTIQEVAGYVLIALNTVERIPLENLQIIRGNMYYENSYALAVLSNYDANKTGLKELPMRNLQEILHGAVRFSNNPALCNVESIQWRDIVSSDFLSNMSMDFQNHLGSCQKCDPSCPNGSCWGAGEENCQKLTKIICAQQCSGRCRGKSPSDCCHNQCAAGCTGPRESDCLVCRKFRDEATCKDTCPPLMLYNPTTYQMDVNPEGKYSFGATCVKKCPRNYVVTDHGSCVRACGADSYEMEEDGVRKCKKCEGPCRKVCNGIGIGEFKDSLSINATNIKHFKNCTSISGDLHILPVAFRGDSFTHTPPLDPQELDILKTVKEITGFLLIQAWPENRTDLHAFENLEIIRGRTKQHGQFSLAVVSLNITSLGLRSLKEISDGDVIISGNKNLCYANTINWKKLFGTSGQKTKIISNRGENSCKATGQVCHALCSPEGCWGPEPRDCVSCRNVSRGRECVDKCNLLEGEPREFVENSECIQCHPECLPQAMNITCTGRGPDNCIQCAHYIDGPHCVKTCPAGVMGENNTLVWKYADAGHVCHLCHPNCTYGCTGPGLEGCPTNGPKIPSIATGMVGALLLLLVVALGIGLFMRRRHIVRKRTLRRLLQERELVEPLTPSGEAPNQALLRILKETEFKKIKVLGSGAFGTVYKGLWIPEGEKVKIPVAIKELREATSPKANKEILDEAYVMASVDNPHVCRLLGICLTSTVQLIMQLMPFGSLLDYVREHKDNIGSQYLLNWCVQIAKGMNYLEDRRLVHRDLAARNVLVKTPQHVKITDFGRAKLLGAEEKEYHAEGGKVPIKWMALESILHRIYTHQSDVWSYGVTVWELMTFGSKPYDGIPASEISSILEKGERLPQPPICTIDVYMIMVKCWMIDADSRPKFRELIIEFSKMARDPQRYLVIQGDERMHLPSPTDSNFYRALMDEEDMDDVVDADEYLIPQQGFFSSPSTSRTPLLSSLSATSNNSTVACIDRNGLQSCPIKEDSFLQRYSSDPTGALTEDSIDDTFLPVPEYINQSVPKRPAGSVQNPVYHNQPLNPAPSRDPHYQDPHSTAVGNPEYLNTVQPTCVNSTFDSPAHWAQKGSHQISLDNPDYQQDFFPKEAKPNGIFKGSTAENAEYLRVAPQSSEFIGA

In the case of `CC(C)c1cnc(N2CC(CS(C)(=O)=O)C2)c2cnc(Nc3ccnc(C45CC(CO)(C4)C5)n3)cc12` [Example 4, (3-(4-((5-isopropyl-8-(3-((methylsulfonyl)methyl)azetidin-1-yl)-2,7-naphthyridin-3-yl)amino)pyrimidin-2-yl)bicyclo[1.1.1]pentan-1-yl)methanol], the IC50 in experiment [1] was more than 50 nM; in experiment [2], 15 to 20 nM.
Turning to `CC(C)c1cnc(N2CC(CS(C)(=O)=O)C2)c2cnc(Nc3ccnc(C4CCC4)n3)cc12` [Example 5, N-(2-cyclobutylpyrimidin-4-yl)-5-isopropyl-8-(3-((methylsulfonyl)methyl)azetidin-1-yl)-2,7-naphthyridin-3-amine], the IC50 in experiment [1] is more than 50 nM; in experiment [2] it was 30 to 100 nM.
For `CC(C)c1cnc(N2CC(CS(C)(=O)=O)C2)c2cnc(Nc3ccnc([C@H]4C[C@@H](O)C4)n3)cc12` [Example 6, (1s,3s)-3-(4-((5-isopropyl-8-(3-((methylsulfonyl)methyl)azetidin-1-yl)-2,7-naphthyridin-3-yl)amino)pyrimidin-2-yl)cyclobutan-1-ol], in that order: more than 50 nM and 30 to 100 nM.
Turning to `CC(C)c1cnc(N2CC(CS(C)(=O)=O)C2)c2cnc(Nc3ccnc([C@H]4C[C@H](O)C4)n3)cc12` [Example 7, (1r,3r)-3-(4-((5-isopropyl-8-(3-((methylsulfonyl)methyl)azetidin-1-yl)-2,7-naphthyridin-3-yl)amino)pyrimidin-2-yl)cyclobutan-1-ol], the IC50 was more than 50 nM in experiment [1] and 15 to 20 nM in experiment [2].
Regarding `Cc1ncc(-c2nccc(Nc3cc4c(C(C)C)ncc(N5CC(CS(C)(=O)=O)C5)c4cn3)n2)s1` [Example 8, 5-isopropyl-8-(3-((methylsulfonyl)methyl)azetidin-1-yl)-N-(2-(2-methylthiazol-5-yl)pyrimidin-4-yl)-2,6-naphthyridin-3-amine], the IC50 in experiment [1] was less than 10 nM; in experiment [2] it was not above 15 nM.
As for `CC(C)c1ncc(N2CC(CS(C)(=O)=O)C2)c2cnc(Nc3ccnc(-c4cnn(C)c4)n3)cc12` [Example 9, 5-isopropyl-N-(2-(1-methyl-1H-pyrazol-4-yl)pyrimidin-4-yl)-8-(3-((methylsulfonyl)methyl)azetidin-1-yl)-2,6-naphthyridin-3-amine], the IC50 in experiment [1] was 30 to 50 nM; in experiment [2], not above 15 nM.
As for `CC(C)c1ccc(N2CC(CS(C)(=O)=O)C2)c2cnc(Nc3ccnc(-c4cnn(C)c4)n3)cc12` [Example 10, 5-isopropyl-N-(2-(1-methyl-1H-pyrazol-4-yl)pyrimidin-4-yl)-8-(3-((methylsulfonyl)methyl)azetidin-1-yl)isoquinolin-3-amine], the IC50 in experiment [1] is 10 to 20 nM; in experiment [2] it was not above 15 nM.
In the case of `COc1ccc(-c2nccc(Nc3cc4c(C(C)C)ccc(N5CC(CS(C)(=O)=O)C5)c4cn3)n2)cn1` [Example 11, 5-isopropyl-N-(2-(6-methoxypyridin-3-yl)pyrimidin-4-yl)-8-(3-((methylsulfonyl)methyl)azetidin-1-yl)isoquinolin-3-amine], the figures for the IC50 in experiment [1] and in experiment [2] were more than 50 nM and 30 to 100 nM, respectively.
For `CCS(=O)(=O)CC1CN(c2ccc(C(C)C)c3cc(Nc4ccnc(-c5cnn(C)c5)n4)ncc23)C1` [Example 12, 8-(3-((ethylsulfonyl)methyl)azetidin-1-yl)-5-isopropyl-N-(2-(1-methyl-1H-pyrazol-4-yl)pyrimidin-4-yl)isoquinolin-3-amine], the IC50 in experiment [1] is 10 to 20 nM; in experiment [2] it was not above 15 nM.
On the same counts, the results for `CC(C)c1ccc(N2CC(CS(C)(=O)=O)C2)c2cnc(Nc3ccnc(-c4cccnc4)n3)cc12` [Example 13, 5-isopropyl-8-(3-((methylsulfonyl)methyl)azetidin-1-yl)-N-(2-(pyridin-3-yl)pyrimidin-4-yl)isoquinolin-3-amine] are 10 to 20 nM and not above 15 nM.

The values are drawn from patent US20240300946A1, “EGFR INHIBITORS” (Blueprint Medicines Corporation, priority 2021, published 2024).
